Experimental findings from patent publication EP1203770A1 (priority 1992, dated 1994) are described below.

The test concerns the target T1, HIV-1 protease (Human immunodeficiency virus type 1 group M subtype B, UniProt P04585).
T1 construct: The protease (or proteinase), consisting of only 99 amino acids, is among the smallest enzymes known
Kind of test: In vitro HIV protease inhibitory assay (HIV Protease FITC Assay). It counts as biochemical. To be noted: for inhibition at 1 µM: HIV-1 Dose 1.000 uM; for inhibition at 1 µM / inhibition at 10 µM / inhibition at 100 µM / inhibition at 0.41 µM / inhibition at 1.23 µM / inhibition at 3.7 µM / inhibition at 11 µM / inhibition at 33 µM: read-out: HIV-1 Protease % Inhib; for Ki: read-out: HIV-1 FITC Ki; for inhibition at 0.41 µM: HIV-1 Dose 0.410 uM; for inhibition at 1.23 µM: HIV-1 Dose 1.230 uM; for inhibition at 3.7 µM: HIV-1 Dose 3.700 uM; for inhibition at 11 µM: HIV-1 Dose 11.000 uM; for inhibition at 33 µM: HIV-1 Dose 33.000 uM. A digest of the protocol: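 Biotin/FITC-labelled peptide substrate cleaved by HIV-1 protease for 1 h at room temperature in the dark, in 0.1 M sodium acetate pH 5.5, 1.0 M NaCl, 0.05% NP-40. Uncleaved substrate captured on avidin beads and separated by filtration; fluorescence gave % inhibition.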

Where “and” joins values, the source holds several entries; their conditions need not be identical. Identical values can stand only once. Some results are limits rather than exact numbers.

Take `CCC(c1ccccc1)c1c(O)cc(C(CC2CC2)CC2CC2)oc1=O` (stereo not shown) [Example 87, 6-(2-Cyclopropyl-1-cyclopropylmethyl-ethyl)-4-hydroxy-3(1-phenyl-propyl)-pyran-2-one]: the inhibition at 1 µM is 17.8%. Under “HIV-1 Dose 10.000 uM”, the inhibition at 10 µM amounted to 83.8%. For the setting “HIV-1 Dose 100.000 uM”, the inhibition at 100 µM worked out at 90.2%.

As for `O=c1oc(C(Cc2ccccc2)CC2CC2)cc(O)c1C(c1ccccc1)C1CC1` (stereo not shown) [Example 88, 6-(1-Benzyl-2-cyclopropyl-ethyl)-3-(cyclopropyl-phenyl-methyl)-4-hydroxy-pyran-2-one], the inhibition at 1 µM stood at 46.2%. The inhibition at 10 µM (HIV-1 Dose 10.000 uM) was found to be 60.8%. For the same compound, where the note is “HIV-1 Dose 100.000 uM”, the inhibition at 100 µM was 95.1%.

In the case of `O=c1oc(CCC2CC2)cc(O)c1C(c1ccccc1)C1CC1` (stereo not shown) [Example 89, 6-(2-Cyclopropyl-ethyl)-3-(cyclopropyl-phenyl-methyl)-4-hydroxy-pyran-2-one], the inhibition at 1 µM was less than 10%. Also, the inhibition at 10 µM (HIV-1 Dose 10.000 uM) stood at 70%. For the setting “HIV-1 Dose 100.000 uM”, the inhibition at 100 µM worked out at 84%. Moreover, the “HIV-1 Protease % Inhib” value (dose not given) is on record as less than 10%.

As to `CCC(CC1CC1)c1cc(O)c(C(c2ccccc2)C2CC2)c(=O)o1` (stereo not shown) [Example 90, 6-(1-Cyclopropylmethyl-propyl)-3-(cyclopropyl-phenyl-methyl)-4-hydroxy-pyran-2-one], the inhibition at 1 µM amounted to 61.2%. For the same compound, the inhibition at 10 µM (HIV-1 Dose 10.000 uM) turned out to be 95.1%. In addition, for the setting “HIV-1 Dose 100.000 uM”, the “HIV-1 Protease % Inhib” value amounted to 96% and the inhibition at 100 µM is 95.9%.

For the compound `O=c1oc(CCCCc2ccccc2)cc(O)c1C(c1ccccc1)C1CC1` (stereo not shown) [Example 91, 3-(Cyclopropyl-phenyl-methyl)-4-hydroxy-6-(4-phenyl-butyl)-pyran-2-one], the inhibition at 1 µM was less than 10%. The inhibition at 10 µM (HIV-1 Dose 10.000 uM) was found to be 27.8%. Besides, the inhibition at 100 µM (HIV-1 Dose 100.000 uM) amounted to 62%.

As for `O=c1oc(C(CC2CC2)CC2CC2)cc(O)c1C(C1CCCCC1)C1CC1` (stereo not shown) [Example 92, 3-(Cyclohexyl-cyclopropyl-methyl)-6-(2-cyclopropyl-1-cyclopropylmethyl-ethyl)-4-hydroxy-pyran-2-one], the inhibition at 1 µM stood at 38.3%. Also, the inhibition at 10 µM (HIV-1 Dose 10.000 uM) came out at 80.9%. In addition, under “HIV-1 Dose 100.000 uM”, the inhibition at 100 µM worked out at 87.1%.

`CCC(CCCc1ccccc1)c1cc(O)c(C(c2ccccc2)C2CC2)c(=O)o1` (stereo not shown) [Example 93, 3-(Cyclopropyl-phenyl-methyl)-6-(1-ethyl-4-phenyl-butyl)-4-hydroxy-pyran-2-one]: under “HIV-1 Dose 10.000 uM”, the “HIV-1 Protease % Inhib” value was 67.65% and 71.27%; the inhibition at 10 µM was found to be 72.6%. Further, for the setting “HIV-1 Dose 100.000 uM”, the “HIV-1 Protease % Inhib” value was 59.48% and 67.68%; the inhibition at 100 µM was 79.3%. The “HIV-1 Protease % Inhib” value (dose not given) is listed as less than 10%.

As for `O=c1oc(CCCC2CCCCC2)cc(O)c1C(c1ccccc1)C1CC1` (stereo not shown) [Example 94, 6-(3-Cyclohexyl-propyl)-3-(cyclopropyl-phenyl-methyl)-4-hydroxy-pyran-2-one], the inhibition at 1 µM was less than 10%. The inhibition at 10 µM (HIV-1 Dose 10.000 uM) is 25%. The inhibition at 100 µM (HIV-1 Dose 100.000 uM) turned out to be 52.4%.

Turning to `CCC(CCC1CCCCC1)c1cc(O)c(C(c2ccccc2)C2CC2)c(=O)o1` (stereo not shown) [Example 95, 6-(3-Cyclohexyl-1-ethyl-propyl)-3-(cyclopropyl-phenyl-methyl)-4-hydroxy-pyran-2-one], the inhibition at 1 µM is less than 10%. For the same compound, the inhibition at 10 µM (HIV-1 Dose 10.000 uM) was determined as 33.6%. For the same compound, for the setting “HIV-1 Dose 100.000 uM”, the inhibition at 100 µM stood at 41%.

The Ki is a measure of affinity in units of concentration, obtained from inhibition or displacement. Consider `CCC(c1ccccc1)c1c(O)cc(CCC2CC2)oc1=O` (stereo not shown) [Example 96, 6-(2-Cyclopropyl-ethyl)-4-hydroxy-3-(1-phenyl-propyl)-pyran-2-one], for which the inhibition at 1 µM turned out to be 27.9% and the Ki turned out to be 1400 nM. Besides, the inhibition at 10 µM (HIV-1 Dose 10.000 uM) was determined as 77%. The inhibition at 100 µM (HIV-1 Dose 100.000 uM) was determined as 90.5%.

On to `C=CCC(CC=C)c1cc(O)c(C(c2ccccc2)C2CC2)c(=O)o1` (stereo not shown) [Example 97, 6-(1-Allyl-but-3-enyl)-3-(cyclopropyl-phenyl-methyl)-4-hydroxy-pyran-2-one], for which the inhibition at 1 µM turned out to be 75.9% and the Ki came out at 100 nM. The inhibition at 10 µM (HIV-1 Dose 10.000 uM) was 99.6%. For the same compound, the inhibition at 100 µM (HIV-1 Dose 100.000 uM) is 110%.

Regarding `C=CCCc1cc(O)c(C(c2ccccc2)C2CC2)c(=O)o1` (stereo not shown) [Example 98, 6-But-3-enyl-3-(cyclopropyl-phenyl-methyl)-4-hydroxy-pyran-2-one], the inhibition at 1 µM is 50.8%. In addition, the inhibition at 10 µM (HIV-1 Dose 10.000 uM) was determined as 93.5%. For the same compound, the inhibition at 100 µM (HIV-1 Dose 100.000 uM) was determined as 110%.

In the case of `CCC(CCc1ccccc1)c1cc(O)c(C(c2ccccc2)C2CC2)c(=O)o1` (stereo not shown) [Example 99, 3-(Cyclopropyl-phenyl-methyl)-6-(1-ethyl-3-phenyl-propyl)-4-hydroxy-pyran-2-one], the inhibition at 1 µM was 71.5%. Besides, the inhibition at 10 µM (HIV-1 Dose 10.000 uM) amounted to 99.6%. The inhibition at 100 µM (HIV-1 Dose 100.000 uM) was determined as 90.7%.

Take `CCC(c1ccccc1)c1c(O)c(Br)c(CCC2CC2)oc1=O` (stereo not shown) [Example 100, 5-Bromo-6-(2-cyclopropyl-ethyl)-4-hydroxy-3-(1-phenyl-propyl)-pyran-2-one]: the inhibition at 1 µM was determined as 38.3% and the Ki came to 480 nM. Further, the inhibition at 10 µM (HIV-1 Dose 10.000 uM) came to 94.6%. In addition, the inhibition at 100 µM (HIV-1 Dose 100.000 uM) worked out at 104%.

Take `CCC(c1ccccc1)c1c(O)cc(C(Cc2ccccc2)Cc2ccccc2)oc1=O` (stereo not shown) [Example 101, 6-(1-Benzyl-2-phenyl-ethyl)-4-hydroxy-3-(1-phenyl-propyl)-pyran-2-one]: the inhibition at 1 µM turned out to be 52.2%. The inhibition at 10 µM (HIV-1 Dose 10.000 uM) was found to be 78.8%. In addition, the inhibition at 100 µM (HIV-1 Dose 100.000 uM) is 97.9%.

As to `COCCOCCCc1cc(O)c(C(c2ccccc2)C2CC2)c(=O)o1` (stereo not shown) [Example 102, 3-(Cyclopropyl-phenyl-methyl)-4-hydroxy-6-(3-(2-methoxy-ethoxy)-propyl)-pyran-2-one], the inhibition at 1 µM is 33.8% and the Ki was 1520 nM. Moreover, the inhibition at 10 µM (HIV-1 Dose 10.000 uM) came to 62.2%. Where the note is “HIV-1 Dose 100.000 uM”, the inhibition at 100 µM came to 105%.

As for `COCCOCCCc1oc(=O)c(C(c2ccccc2)C2CC2)c(O)c1CCOCCOC` (stereo not shown) [Example 103], the inhibition at 1 µM is 26.6%. Under “HIV-1 Dose 10.000 uM”, the inhibition at 10 µM amounted to 31.3%. The inhibition at 100 µM (HIV-1 Dose 100.000 uM) was 83%.

Turning to `CCCc1cc(O)c(C(c2ccccc2)C2CC2)c(=O)o1` (stereo not shown) [Example 104, 3-(Cyclopropyl-phenyl-methyl)-4-hydroxy-6-propyl-pyran-2-one], the inhibition at 1 µM worked out at 50%. Also, where the note is “HIV-1 Dose 10.000 uM”, the inhibition at 10 µM stood at 73.2%. Moreover, where the note is “HIV-1 Dose 100.000 uM”, the inhibition at 100 µM turned out to be 87.3%.

As to `CCC(c1ccccc1)c1c(O)c(Br)c(CCc2ccccc2)oc1=O` (stereo not shown) [Example 105, 5-Bromo-4-hydroxy-6-phenylethyl-3(1-phenyl-propyl)-pyran-2-one], the inhibition at 0.41 µM came out at 14.3%, the inhibition at 1.23 µM is 38.9%, the inhibition at 3.7 µM amounted to 75.3% and the inhibition at 11 µM was found to be 103%. The inhibition at 33 µM is 110% and the inhibition constant Ki is 458 nM. Besides, where the note is “HIV-1 Dose 100.000 uM”, the inhibition at 100 µM was found to be 108%.

Turning to `CCC(CCOCCOC)c1cc(O)c(C(c2ccccc2)C2CC2)c(=O)o1` (stereo not shown) [Example 106, 3-(Cyclopropyl-phenyl-methyl)-6-(1-ethyl-3-(2-methoxy-ethoxy)-propyl)-4-hydroxy-pyran-2-one], the inhibition at 0.41 µM came to 57.4%, the inhibition at 1.23 µM was 82.1%, the inhibition at 3.7 µM was determined as 101% and the inhibition at 11 µM is 111%. The inhibition at 33 µM came out at 115% and the Ki turned out to be 58 nM. The inhibition at 100 µM (HIV-1 Dose 100.000 uM) was found to be 119%.

Take `COCCOCCC(Cc1ccccc1)c1cc(O)c(C(c2ccccc2)C2CC2)c(=O)o1` (stereo not shown) [Example 107, 6-(1-Benzyl-3-(2-methoxy-ethoxy)-propyl)-3-(cyclopropyl-phenyl-methyl)-4-hydroxy-pyran-2-one]: the inhibition at 0.41 µM came to 50%, the inhibition at 1.23 µM was 80.3%, the inhibition at 3.7 µM is 100% and the inhibition at 11 µM came to 103%. Further, the inhibition at 33 µM came out at 109% and the Ki was 41 nM. For the same compound, the inhibition at 100 µM (HIV-1 Dose 100.000 uM) came out at 110%.

With `COCCOCCOCCCc1cc(O)c(C(c2ccccc2)C2CC2)c(=O)o1` (stereo not shown) [Example 108], the inhibition at 0.41 µM is less than 10%, the inhibition at 1.23 µM was 20.4%, the inhibition at 3.7 µM worked out at 46.9% and the inhibition at 11 µM was 76.7%. For the same compound, the inhibition at 33 µM came out at 84.8% and the Ki was determined as 607 nM. Further, the inhibition at 100 µM (HIV-1 Dose 100.000 uM) was 118%.

In the case of `CCCc1oc(=O)c(C(CC)c2ccccc2)c(O)c1Br` (stereo not shown) [Example 109, 5-Bromo-4-hydroxy-3-(1-phenyl-propyl)-6-propyl-pyran-2-one], the inhibition at 0.41 µM amounted to 22.2%, the inhibition at 1.23 µM amounted to 51.8%, the inhibition at 3.7 µM was determined as 78.9% and the inhibition at 11 µM turned out to be 106%. The inhibition at 33 µM is 105% and the Ki came to 203 nM. The inhibition at 100 µM (HIV-1 Dose 100.000 uM) worked out at 108%.

Take `CCC(CC)c1oc(=O)c(C(c2ccccc2)C2CC2)c(O)c1CCOCCOC` (stereo not shown) [Example 110, 3-(Cyclopropyl-phenyl-methyl)-6-(1-ethyl-propyl)-4-hydroxy-5-(2-(2-methoxy-ethoxy)ethyl)-pyran-2-one]: the inhibition at 0.41 µM is less than 10%, the inhibition at 1.23 µM was found to be 16.1%, the inhibition at 3.7 µM stood at 43.2% and the inhibition at 11 µM is 71.2%. The inhibition at 33 µM was 88.6%. Moreover, the inhibition at 100 µM (HIV-1 Dose 100.000 uM) turned out to be 84.3%.
